In patent publication US20100286145A1, “ISOPHTHALAMIDE DERIVATIVES INHIBITING BETA-SECRETASE ACTIVITY” (CoMentis, Inc., priority 2007, published 2010):
pIC50, pKi: −log10 of the molar value. Like-named read-outs stand apart in the source and are kept apart here.

Experiments:
[1] = system: Aβ production in Chinese hamster ovary cells that over-express human APP695 with the London and Swedish mutations; test: Cellular Aβ IC50 determination (Aβ40 sandwich ELISA); type: cell-based; settings: Cricetulus griseus; cellular Aβ production; read-out: IC50
Method in brief: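 CHO cells overexpressing human APP695 with London and Swedish mutations, seeded at 10% confluency, treated with compounds up to about 4 μM final (0.4% DMSO). Secreted Aβ40 measured by sandwich ELISA relative to control and fitted to a 4-parameter IC50 model.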

memapsin 2 = memapsin 2 (Homo sapiens, UniProt P56817); test: Inhibition of memapsin 2 beta-secretase activity (fluorogenic substrate FS-2); type: biochemical; settings: memapsin 2, pH 4, 37° C., read-out: M2Ki
Method in brief: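 Memapsin 2 pre-incubated 20 min with compound at pH 4, 37° C, then FS-2 substrate (MCA-SEVNLDAEFK-DNP, APP Swedish cleavage site) added. Rate of fluorescence increase compared with uninhibited controls, fitted to a tight-binding inhibition model.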

Sequence of memapsin 2 (P56817 46-501): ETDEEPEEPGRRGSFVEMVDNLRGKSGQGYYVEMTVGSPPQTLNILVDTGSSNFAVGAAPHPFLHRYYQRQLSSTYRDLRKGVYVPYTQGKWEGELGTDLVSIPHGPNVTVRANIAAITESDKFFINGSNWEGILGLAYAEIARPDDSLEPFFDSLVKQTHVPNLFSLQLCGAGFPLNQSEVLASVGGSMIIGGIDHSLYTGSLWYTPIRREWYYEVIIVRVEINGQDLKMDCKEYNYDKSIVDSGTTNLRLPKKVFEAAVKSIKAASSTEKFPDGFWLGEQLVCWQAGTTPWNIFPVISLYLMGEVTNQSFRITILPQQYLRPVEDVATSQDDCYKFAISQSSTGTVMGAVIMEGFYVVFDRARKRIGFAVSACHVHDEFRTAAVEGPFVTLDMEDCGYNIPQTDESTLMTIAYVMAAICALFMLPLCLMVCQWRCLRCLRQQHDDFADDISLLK

| Structure (SMILES) | pIC50 [1] | pKi (memapsin 2; fluorogenic substrate FS-2) | pKi (memapsin 2; 20 minutes pre-incubation) |
| --- | --- | --- | --- |
| COc1cccc([C@H](C)NC[C@@H](O)[C@H](Cc2ccccc2)NC(=O)c2cc(C(=O)N(C)Cc3nc(C)cs3)cc(N(C)C)c2)c1 [Compound 260, 5-(dimethylamino)-N1-((2S,3R)-3-hydroxy-4-((S)-1-(3-methoxyphenyl)ethylamino)-1-phenylbutan-2-yl)-N3-methyl-N3-((4-methylthiazol-2-yl)methyl)isophthalamide] | > 6.00 | 6.30 to 6.52 | – |
| Cc1csc(CN(C)C(=O)c2cccc(C(=O)N[C@@H](Cc3ccccc3)[C@H](O)CNCc3cc(C(F)(F)F)cc(C(F)(F)F)c3)c2)n1 [Compound 27, N1-((2S,3R)-4-(3,5-bis(trifluoromethyl)benzylamino)-3-hydroxy-1-phenylbutan-2-yl)-N3-methyl-N3-((4-methylthiazol-2-yl)methyl)isophthalamide] | > 6.00 | – | > 6.52 |
| COc1cccc(CNC[C@@H](O)[C@H](Cc2ccccc2)NC(=O)c2cc(CO)cc(C(=O)N(C)Cc3nc(C)cs3)c2)c1 [Compound 49, N1-((2S,3R)-3-hydroxy-4-(3-methoxybenzylamino)-1-phenylbutan-2-yl)-5-(hydroxymethyl)-N3-methyl-N3-((4-methylthiazol-2-yl)methyl)isophthalamide] | > 6.00 | – | > 6.52 |
| Cc1csc(CN(C)C(=O)c2cccc(C(=O)N[C@@H](Cc3ccccc3)[C@H](O)CNCc3cccc(N)c3)c2)n1 [Compound 191, N1-((2S,3R)-4-(3-aminobenzylamino)-3-hydroxy-1-phenylbutan-2-yl)-N3-methyl-N3-((4-methylthiazol-2-yl)methyl)isophthalamide] | < 5.30 | – | < 6.30 |
| Cc1cc(C(=O)N[C@@H](Cc2ccccc2)[C@H](O)CNCc2ccnc(C(C)C)c2)cc(C(=O)N(C)Cc2nc(C)cs2)c1 [Compound 60, N1-((2S,3R)-3-hydroxy-4-((2-isopropylpyridin-4-yl)methylamino)-1-phenylbutan-2-yl)-N3,5-dimethyl-N3-((4-methylthiazol-2-yl)methyl)isophthalamide] | > 6.00 | – | > 6.52 |
| Cc1csc(CN(C)C(=O)c2cc(C(=O)N[C@@H](Cc3ccccc3)[C@H](O)CNCc3cncc(C(C)C)c3)cc(N3CCC(O)C3)c2)n1 (stereo partly drawn) [Compound 242, N1-((2S,3R)-3-hydroxy-4-((5-isopropylpyridin-3-yl)methylamino)-1-phenylbutan-2-yl)-5-(3-hydroxypyrrolidin-1-yl)-N3-methyl-N3-((4-methylthiazol-2-yl)methyl)isophthalamide] | > 6.00 | > 6.52 | – |
| Cc1csc(CN(C)C(=O)c2cc(C(=O)N[C@@H](Cc3ccccc3)[C@H](O)CNCc3cccc(C(F)(F)F)c3)cc(N(C)C)c2)n1 [Compound 254, 5-(dimethylamino)-N1-((2S,3R)-3-hydroxy-1-phenyl-4-(3-(trifluoromethyl)benzylamino)butan-2-yl)-N3-methyl-N3-((4-methylthiazol-2-yl)methyl)isophthalamide] | > 6.00 | > 6.52 | – |
| Cc1csc(CN(C)C(=O)c2cccc(C(=O)N[C@@H](Cc3ccccc3)[C@H](O)CNCc3cccc(C(C)(F)F)c3)c2)n1 [Compound 145, N1-((2S,3R)-4-(3-(1,1-difluoroethyl)benzylamino)-3-hydroxy-1-phenylbutan-2-yl)-N3-methyl-N3-((4-methylthiazol-2-yl)methyl)isophthalamide] | > 6.00 | – | > 6.52 |
| CC(=O)c1cncc(CNC[C@@H](O)[C@H](Cc2ccccc2)NC(=O)c2cccc(C(=O)N(C)Cc3nc(C)cs3)c2)c1 [Compound 264, N1-((2S,3R)-4-((5-acetylpyridin-3-yl)methylamino)-3-hydroxy-1-phenylbutan-2-yl)-N3-methyl-N3-((4-methylthiazol-2-yl)methyl)isophthalamide] | > 6.00 | > 6.52 | – |
| Cc1csc(CN(C)C(=O)c2cccc(C(=O)N[C@@H](Cc3ccccc3)[C@H](O)CNC(C)c3cncc(C(C)C)c3)c2)n1 (stereo partly drawn) [Compound 148, N1-((2S,3R)-3-hydroxy-4-(1-(5-isopropylpyridin-3-yl)ethylamino)-1-phenylbutan-2-yl)-N3-methyl-N3-((4-methylthiazol-2-yl)methyl)isophthalamide] | > 6.00 | – | > 6.52 |
| Cc1csc(CN(C)C(=O)c2cc(C(=O)N[C@@H](Cc3ccccc3)[C@H](O)CNCc3cc(OS(C)(=O)=O)cc(C(C)C)c3)cc(N(C)C)c2)n1 [Compound 178, 3-(((2R,3S)-3-(3-(dimethylamino)-5-(methyl((4-methylthiazol-2-yl)methyl)carbamoyl)benzamido)-2-hydroxy-4-phenylbutylamino)methyl)-5-isopropylphenyl methanesulfonate] | > 6.00 | – | > 6.52 |
| Cc1csc(CN(C)C(=O)c2cccc(C(=O)N[C@@H](Cc3ccccc3)[C@H](O)CNCc3cncc(CCC(C)C)c3)c2)n1 [Compound 68, N1-((2S,3R)-3-hydroxy-4-((5-isopentylpyridin-3-yl)methylamino)-1-phenylbutan-2-yl)-N3-methyl-N3-((4-methylthiazol-2-yl)methyl)isophthalamide] | > 6.00 | – | > 6.52 |
| CO/C=C(/C)c1cncc(CNC[C@@H](O)[C@H](Cc2ccccc2)NC(=O)c2cccc(C(=O)N(C)Cc3nc(C)cs3)c2)c1 [Compound 279, N1-((2S,3R)-3-hydroxy-4-((5-((Z)-1-methoxyprop-1-en-2-yl)pyridin-3-yl)methylamino)-1-phenylbutan-2-yl)-N3-methyl-N3-((4-methylthiazol-2-yl)methyl)isophthalamide] | > 6.00 | 6.30 to 6.52 | – |
| Cc1csc(CN(C)C(=O)c2cccc(C(=O)N[C@@H](Cc3ccccc3)[C@H](O)CNCc3cc(C#N)cc(C(F)(F)F)c3)c2)n1 [Compound 266, N1-((2S,3R)-4-(3-cyano-5-(trifluoromethyl)benzylamino)-3-hydroxy-1-phenylbutan-2-yl)-N3-methyl-N3-((4-methylthiazol-2-yl)methyl)isophthalamide] | > 6.00 | > 6.52 | – |
| CCCN(Cc1nc(C)cs1)C(=O)c1cccc(C(=O)N[C@@H](Cc2ccccc2)[C@H](O)CNCc2cccc(OC)c2)c1 [Compound 11, N1-((2S,3R)-3-hydroxy-4-(3-methoxybenzylamino)-1-phenylbutan-2-yl)-N3-((4-methylthiazol-2-yl)methyl)-N3-propylisophthalamide] | > 6.00 | – | > 6.52 |
| C[C@@H](NC(=O)c1cc(C(=O)N[C@@H](Cc2ccccc2)[C@H](O)CNCc2cc(C(C)(C)C)ccc2O)cc(N(C)S(C)(=O)=O)c1)c1ccccc1 [Compound 110, N1-((2S,3R)-4-(5-tert-butyl-2-hydroxybenzylamino)-3-hydroxy-1-phenylbutan-2-yl)-5-(N-methylmethylsulfonamido)-N3-((R)-1-phenylethyl)isophthalamide] | > 6.00 | – | > 6.52 |
| Cc1csc(CN(C)C(=O)c2cccc(C(=O)N[C@@H](Cc3ccccc3)[C@H](O)CNCc3cc(C(C)C)nc(N)n3)c2)n1 [Compound 155, N1-((2S,3R)-4-((2-amino-6-isopropylpyrimidin-4-yl)methylamino)-3-hydroxy-1-phenylbutan-2-yl)-N3-methyl-N3-((4-methylthiazol-2-yl)methyl)isophthalamide] | > 6.00 | – | > 6.52 |
| Cc1nnc(CN(C)C(=O)c2cccc(C(=O)N[C@@H](Cc3ccccc3)[C@H](O)CNCc3cncc(C(C)C)c3)c2)o1 [Compound 256, N1-((2S,3R)-3-hydroxy-4-((5-isopropylpyridin-3-yl)methylamino)-1-phenylbutan-2-yl)-N3-methyl-N3-((5-methyl-1,3,4-oxadiazol-2-yl)methyl)isophthalamide] | 5.30 to 6.00 | < 6.30 | – |
| C[C@@H](NC(=O)c1cc(C(=O)N[C@@H](Cc2ccccc2)[C@H](O)CNCc2cccc(C(C)(C)C)c2)cc(N(C)S(C)(=O)=O)c1)c1ccccc1 [Compound 58, N1-((2S,3R)-4-(3-tert-butylbenzylamino)-3-hydroxy-1-phenylbutan-2-yl)-5-(N-methylmethylsulfonamido)-N3-((R)-1-phenylethyl)isophthalamide] | > 6.00 | – | > 6.52 |
| Cc1csc(CN(C)C(=O)c2cccc(C(=O)N[C@@H](Cc3ccccc3)[C@H](O)CNCc3cccc(C4CC4)c3)c2)n1 [Compound 12, N1-((2S,3R)-4-(3-cyclopropylbenzylamino)-3-hydroxy-1-phenylbutan-2-yl)-N3-methyl-N3-((4-methylthiazol-2-yl)methyl)isophthalamide] | > 6.00 | – | > 6.52 |
| COc1cc(CNC[C@@H](O)[C@H](Cc2ccccc2)NC(=O)c2cccc(C(=O)N(C)Cc3nc(C)cs3)c2)nc(N(C)C)n1 [Compound 212, N1-((2S,3R)-4-((2-(dimethylamino)-6-methoxypyrimidin-4-yl)methylamino)-3-hydroxy-1-phenylbutan-2-yl)-N3-methyl-N3-((4-methylthiazol-2-yl)methyl)isophthalamide] | > 6.00 | > 6.52 | – |
| COc1cc(C(=O)NCc2nc(C)cs2)cc(C(=O)N[C@@H](Cc2ccccc2)[C@H](O)CNCc2ccnc(C(C)C)c2)c1 [Compound 83, N1-((2S,3R)-3-hydroxy-4-((2-isopropylpyridin-4-yl)methylamino)-1-phenylbutan-2-yl)-5-methoxy-N3-((4-methylthiazol-2-yl)methyl)isophthalamide] | > 6.00 | – | > 6.52 |
| COc1cccc(CNC[C@@H](O)[C@H](Cc2ccccc2)NC(=O)c2cccc(C(=O)N(C)Cc3ncc(C)s3)c2)c1 [Compound 6, N1-((2S,3R)-3-hydroxy-4-(3-methoxybenzylamino)-1-phenylbutan-2-yl)-N3-methyl-N3-((5-methylthiazol-2-yl)methyl)isophthalamide] | < 5.30 | – | < 6.30 |
